Laboratory results from PubChem BioAssay (NCI).
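All cell lines were grown in 96-well plates and treated with compound for 48 hours. At the TGI there is no net growth.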 Where a SMILES comes first, the peptide text is derived from it. [ ]: non-standard residue; d: D form. The star is where a group is joined. ξ: configuration not given here. ξHyp = O=C(O)C1CC(O)CN1; Cbz = O=C(OCc1ccccc1)*

Experiments:
Test in all cases: NCI tumour cell line growth inhibition, 48 h
HT29 colon = system: HT29 colon
OVCAR-3 ovarian = system: OVCAR-3 ovarian
OVCAR-5 ovarian = system: OVCAR-5 ovarian
A498 renal = system: A498 renal
NCI-H522 lung = system: NCI-H522 lung
CAKI-1 renal = system: CAKI-1 renal
A549 NSCLC = system: A549 NSCLC
K-562 leukemia = system: K-562 leukemia
SK-MEL-2 melanoma = system: SK-MEL-2 melanoma
U251 CNS = system: U251 CNS
SR leukemia = system: SR leukemia
NCI-H226 lung = system: NCI-H226 lung
MDA-MB-231 breast = system: MDA-MB-231 breast
EKVX NSCLC = system: EKVX NSCLC
SK-MEL-28 melanoma = system: SK-MEL-28 melanoma
SW-620 colon = system: SW-620 colon
UO-31 renal = system: UO-31 renal
CCRF-CEM leukemia = system: CCRF-CEM leukemia
HS 578T breast = system: HS 578T breast
MDA-MB-435 = system: MDA-MB-435
LOX IMVI melanoma = system: LOX IMVI melanoma
SN12C renal = system: SN12C renal
RPMI-8226 leukemia = system: RPMI-8226 leukemia
MDA-N = system: MDA-N
HCT-15 colon = system: HCT-15 colon
NCI-H23 lung = system: NCI-H23 lung
OVCAR-4 ovarian = system: OVCAR-4 ovarian
SF-268 CNS = system: SF-268 CNS
NCI-H460 lung = system: NCI-H460 lung
RXF 393 renal = system: RXF 393 renal
COLO 205 colon = system: COLO 205 colon
UACC-257 melanoma = system: UACC-257 melanoma
786-0 renal = system: 786-0 renal
MALME-3M melanoma = system: MALME-3M melanoma
TK-10 renal = system: TK-10 renal
PC-3 prostate = system: PC-3 prostate
HCT-116 colon = system: HCT-116 colon
T-47D breast = system: T-47D breast
DU-145 prostate = system: DU-145 prostate
ACHN renal = system: ACHN renal
M14 melanoma = system: M14 melanoma
UACC-62 melanoma = system: UACC-62 melanoma
MOLT-4 leukemia = system: MOLT-4 leukemia
SK-MEL-5 melanoma = system: SK-MEL-5 melanoma
SK-OV-3 ovarian = system: SK-OV-3 ovarian
HL-60(TB) leukemia = system: HL-60(TB) leukemia
SNB-75 CNS = system: SNB-75 CNS
SNB-19 CNS = system: SNB-19 CNS
OVCAR-8 ovarian = system: OVCAR-8 ovarian
HOP-92 NSCLC = system: HOP-92 NSCLC
IGROV1 ovarian = system: IGROV1 ovarian
MCF7 breast = system: MCF7 breast
SF-295 CNS = system: SF-295 CNS
BT-549 breast = system: BT-549 breast
HOP-62 NSCLC = system: HOP-62 NSCLC
KM12 colon = system: KM12 colon
NCI/ADR-RES ovarian = system: NCI/ADR-RES ovarian
SF-539 CNS = system: SF-539 CNS
HCC-2998 colon = system: HCC-2998 colon

Measured: TGI

NCC(O)CSP(=O)(O)O (stereo not given)
> 100 µM: HT29 colon | OVCAR-3 ovarian | OVCAR-5 ovarian | A498 renal | NCI-H522 lung | CAKI-1 renal | A549 NSCLC | K-562 leukemia | SK-MEL-2 melanoma | U251 CNS | SR leukemia | NCI-H226 lung | MDA-MB-231 breast | EKVX NSCLC | SK-MEL-28 melanoma | SW-620 colon | UO-31 renal | CCRF-CEM leukemia | HS 578T breast | MDA-MB-435 | LOX IMVI melanoma | SN12C renal | RPMI-8226 leukemia | MDA-N | HCT-15 colon | NCI-H23 lung | OVCAR-4 ovarian | SF-268 CNS | NCI-H460 lung | RXF 393 renal | COLO 205 colon | UACC-257 melanoma | 786-0 renal | MALME-3M melanoma | TK-10 renal | PC-3 prostate | HCT-116 colon | T-47D breast | DU-145 prostate | ACHN renal | M14 melanoma | UACC-62 melanoma | MOLT-4 leukemia | SK-MEL-5 melanoma | SK-OV-3 ovarian | HL-60(TB) leukemia | SNB-75 CNS | SNB-19 CNS | OVCAR-8 ovarian | HOP-92 NSCLC | IGROV1 ovarian | MCF7 breast | SF-295 CNS | BT-549 breast | HOP-62 NSCLC | KM12 colon | NCI/ADR-RES ovarian

O=C(O)C1(Cc2ccccc2)Cc2ccccc2C1
> 100 µM: HT29 colon | OVCAR-3 ovarian | OVCAR-5 ovarian | A498 renal | NCI-H522 lung | SF-539 CNS | A549 NSCLC | K-562 leukemia | SK-MEL-2 melanoma | U251 CNS | SR leukemia | NCI-H226 lung | MDA-MB-231 breast | EKVX NSCLC | SK-MEL-28 melanoma | SW-620 colon | UO-31 renal | CCRF-CEM leukemia | HS 578T breast | MDA-MB-435 | LOX IMVI melanoma | SN12C renal | RPMI-8226 leukemia | MDA-N | HCT-15 colon | NCI-H23 lung | OVCAR-4 ovarian | HCC-2998 colon | SF-268 CNS | NCI-H460 lung | RXF 393 renal | COLO 205 colon | UACC-257 melanoma | MALME-3M melanoma | TK-10 renal | PC-3 prostate | HCT-116 colon | T-47D breast | DU-145 prostate | ACHN renal | M14 melanoma | UACC-62 melanoma | MOLT-4 leukemia | SK-MEL-5 melanoma | SK-OV-3 ovarian | HL-60(TB) leukemia | SNB-75 CNS | SNB-19 CNS | OVCAR-8 ovarian | IGROV1 ovarian | MCF7 breast | SF-295 CNS | BT-549 breast | HOP-62 NSCLC | KM12 colon | NCI/ADR-RES ovarian

C=CCCC1CCCCNC1=S (stereo not given)
> 10 µM: HT29 colon | OVCAR-3 ovarian | OVCAR-5 ovarian | A498 renal | SF-539 CNS | CAKI-1 renal | A549 NSCLC | K-562 leukemia | SK-MEL-2 melanoma | U251 CNS | SR leukemia | NCI-H226 lung | MDA-MB-231 breast | EKVX NSCLC | SK-MEL-28 melanoma | SW-620 colon | UO-31 renal | CCRF-CEM leukemia | HS 578T breast | MDA-MB-435 | LOX IMVI melanoma | SN12C renal | RPMI-8226 leukemia | MDA-N | HCT-15 colon | NCI-H23 lung | OVCAR-4 ovarian | HCC-2998 colon | SF-268 CNS | NCI-H460 lung | RXF 393 renal | COLO 205 colon | UACC-257 melanoma | 786-0 renal | MALME-3M melanoma | TK-10 renal | PC-3 prostate | HCT-116 colon | T-47D breast | DU-145 prostate | ACHN renal | M14 melanoma | UACC-62 melanoma | MOLT-4 leukemia | SK-MEL-5 melanoma | SK-OV-3 ovarian | HL-60(TB) leukemia | SNB-19 CNS | OVCAR-8 ovarian | IGROV1 ovarian | MCF7 breast | SF-295 CNS | BT-549 breast | HOP-62 NSCLC | KM12 colon | NCI/ADR-RES ovarian

O=C1CC2(CCC(O)(c3ccco3)C(C(=O)c3ccco3)C2)C(=O)c2ccccc2N1 (stereo not given)
57 µM: OVCAR-4 ovarian
81.7 µM: T-47D breast
> 100 µM: HT29 colon | OVCAR-3 ovarian | OVCAR-5 ovarian | A498 renal | SF-539 CNS | CAKI-1 renal | A549 NSCLC | K-562 leukemia | SK-MEL-2 melanoma | U251 CNS | SR leukemia | NCI-H226 lung | MDA-MB-231 breast | EKVX NSCLC | SW-620 colon | UO-31 renal | HS 578T breast | MDA-MB-435 | LOX IMVI melanoma | SN12C renal | MDA-N | HCT-15 colon | NCI-H23 lung | HCC-2998 colon | SF-268 CNS | NCI-H460 lung | RXF 393 renal | COLO 205 colon | UACC-257 melanoma | MALME-3M melanoma | TK-10 renal | PC-3 prostate | HCT-116 colon | DU-145 prostate | M14 melanoma | UACC-62 melanoma | SK-MEL-5 melanoma | SK-OV-3 ovarian | HL-60(TB) leukemia | SNB-75 CNS | OVCAR-8 ovarian | HOP-92 NSCLC | IGROV1 ovarian | MCF7 breast | SF-295 CNS | BT-549 breast | HOP-62 NSCLC | NCI/ADR-RES ovarian

NC(=O)CNC(=O)C1CC(O)CN1C(=O)OCc1ccccc1 (stereo not given) (Cbz-[ξHyp]-Gly-NH2)
> 100 µM: HT29 colon | OVCAR-3 ovarian | OVCAR-5 ovarian | A498 renal | NCI-H522 lung | A549 NSCLC | K-562 leukemia | SK-MEL-2 melanoma | U251 CNS | SR leukemia | NCI-H226 lung | MDA-MB-231 breast | EKVX NSCLC | SK-MEL-28 melanoma | SW-620 colon | UO-31 renal | CCRF-CEM leukemia | HS 578T breast | MDA-MB-435 | LOX IMVI melanoma | SN12C renal | RPMI-8226 leukemia | MDA-N | HCT-15 colon | NCI-H23 lung | OVCAR-4 ovarian | HCC-2998 colon | SF-268 CNS | NCI-H460 lung | RXF 393 renal | COLO 205 colon | UACC-257 melanoma | 786-0 renal | MALME-3M melanoma | TK-10 renal | PC-3 prostate | HCT-116 colon | T-47D breast | DU-145 prostate | ACHN renal | M14 melanoma | UACC-62 melanoma | MOLT-4 leukemia | SK-MEL-5 melanoma | SK-OV-3 ovarian | HL-60(TB) leukemia | SNB-75 CNS | SNB-19 CNS | OVCAR-8 ovarian | IGROV1 ovarian | MCF7 breast | SF-295 CNS | BT-549 breast | HOP-62 NSCLC | KM12 colon | NCI/ADR-RES ovarian
